Experimental data taken from patent US20060229433A1, “Modified antiviral peptides with increased activity and cell membrane affinity” (priority 2003, published 2006).
Values joined by “and” are separate entries in the source; they are usually repeats but may differ in a detail not shown here. Equal values may be shown once. Bridge positions count the residues as written; N and C are the ends. Square brackets hold non-standard residues; d marks the D form. Peptide text beside a SMILES is read from it. I, II: the chains in the order shown. Ava = NCCCCC(=O)O

Tests used:
[1] = test system: HIV-1 89.6 subtype B dualtropic (X4R5); conditions: PBMC, Table 5
HIV-1 NL 4-3 [2] = test: HIV-1 infection of C8166 cells (syncytia formation, p24 ELISA) with HIV-1 NL 4-3; assay type: cell-based; conditions: for IC50: C8166 cells, HIV-1 subtype B NL 4-3, Table 3
Method: (§1) HIV-1 NL 4-3 isolate (Adachi et al., 1986; Barré-Sinoussi et al., 1983) and highly cytopathic Zairian HIV-1 NDK isolate (Ellrodt et al., 1984) was propagated in permissive CEM cells (Nara et al., 1987). Uninfected CEM and C8166 (Salahuddin et al., 1983) were maintained in RPMI 1640 (R10) with ultraglutamine (cambrex, Vervier, Belgium), penicillin (100 U/ml), streptomycin (100 μg/ml), and 10% heat-inactivated fetal calf serum (Cambrex).
(§2) Samples of 3×10^5/100 μL C8166 cells were preincubated in 96-well microtiter plates in culture medium containing various concentrations of peptide. After a 1 h treatment at 37° C., 100 μl of diluted viral solution of HIV-1 was added. The cells were exposed to the virus for 1 h at 37° C. at a multiplicity of infection of 1000 TCID50 per ml. The cells were washed three times and cultured at 3×10^5/ml of R10 with the treatment in 24-well plates incubated at 37° C. C8166 culture medium was replaced at Day-4 post-infection. The treatment was permanent before virus adsorption, during virus adsorption and after infection. Assays on C8166 cells have been performed at least twice and in duplicate. Toxicity was evaluated by daily cell count and trypan-blue exclusion assay. Infection of C8166 T-cells with HIV-1 was assessed by virus-induced cytopathic effects (syncytia formation) and by quantification of cell free p24 viral protein in the culture supernatants. Measurements of HIV-1 p24^gag concentration in the culture supernatants were achieved by ELISA (ALLIANCE® HIV-1 p24 kit, Perkin Elmer, life sciences, USA).

HIV-1 NL 4-3 [3] = test: Infection of human peripheral blood lymphocytes (PBL) with NL 4-3 strain, p24 ELISA; assay type: cell-based
Method: Peripheral blood lymphocytes from an HIV-1 negative donor were grown as described earlier, maintained in RPMI 1640 with ultraglutamine, supplemented with IL2 (20 μg/ml), penicillin (100 U/ml), streptomycin (100 μg/ml), and 10% heat-inactivated fetal calf serum. Cells were stimulated three days in the medium supplemented with phytohemagglutinin (20 U/ml PHA P, DIFCO, Detroit Mich.).
Samples of 10^6/100 μL PBL cells were preincubated in 96-well microtiter plates in culture medium containing various concentrations of peptides. After a 1 h treatment at 37° C., 100 μl of diluted viral solution of HIV-1 was added. The cells were exposed to the virus for 1 h at 37° C. at a multiplicity of infection of 1000 TCID50 per ml. The cells were washed three times and cultured at […] of medium with the treatment in 24-well plates incubated at 37° in culture medium with the peptides in 5% CO2. The treatment was permanent before virus adsorption, during virus adsorption and after infection. The PBL culture medium was replaced every 3-4 days during three weeks always in the presence of peptide. The cell viability was assessed by cell counts and trypan-blue exclusion assay. The viral production in the culture supernatant was quantified by p24 ELISA test, as described earlier. All the experiments have been done in blind-tests. Tests have been done in duplicate.

HIV-1 NL 4-3 [4] = test: HIV-1 infection of C8166 cells (syncytia formation, p24 ELISA) with HIV-1 NL 4-3; assay type: cell-based; design: key: ++, +, (+), (+)− and − represent decreasing numbers of syncitia formed; ++, +, (+), (+)− and − represent decreasing numbers of syncitia formed; ++, +, (+), (+)− and − represent decreasing numbers of syncitia formed; ++, +, (+), (+)− and − represent decreasing numbers of syncitia formed; ++, +, (+), (+)− and − represent decreasing numbers of syncitia formed; conditions: Table 1
Method: as §1, §2

HIV-1 NL 4-3 [5] = test: as above; assay type: cell-based; design: key: ++, +, (+), (+)− and − represent decreasing numbers of syncitia formed.; ++, +, (+), (+)− and − represent decreasing numbers of syncitia formed.; ++, +, (+), (+)− and − represent decreasing numbers of syncitia formed.; ++, +, (+), (+)− and − represent decreasing numbers of syncitia formed.; ++, +, (+), (+)− and − represent decreasing numbers of syncitia formed; conditions: Table 2
Method: as §1, §2

Molecule: CC(C)C[C@H](NC(=O)[C@@H]1CCCN1C(=O)[C@H](CO)NC(=O)[C@H](Cc1ccc(O)cc1)NC(=O)CNC(=O)[C@H](CCC(N)=O)NC(=O)[C@@H](N)CCCNC(=N)N)C(=O)NCCCC[C@H](NC(=O)[C@H](CC(C)C)NC(=O)[C@@H]1CCCN1C(=O)[C@H](CO)NC(=O)[C@H](Cc1ccc(O)cc1)NC(=O)CNC(=O)[C@H](CCC(N)=O)NC(=O)[C@@H](N)CCCNC(=N)N)C(=O)NCCCCC(=O)O [RL dimer valeric acid, (RQGYSPL)2-K—NHCH2CH2CH2CH2COOH] (I: H-RQGYSPLK[Ava]-OH / II: H-RQGYSPL; amide I:8-II:C; N-terminus assumed)
- IC50 [1]: 10 nM
- IC100 [1]: 0.5 µM
- IC50 (HIV-1 NL 4-3 [2]): 50 nM
- IC50 (HIV-1 NL 4-3 [3]; PBL, NL 4-3 strain, Table 4): 5 nM
- IC100 (HIV-1 NL 4-3 [3]; PBL, NL 4-3 strain, Table 4): 0.05 µM

Molecule: CC(C)C[C@H](NC(=O)[C@@H]1CCCN1C(=O)[C@H](CO)NC(=O)[C@H](Cc1ccc(O)cc1)NC(=O)CNC(=O)[C@H](CCC(N)=O)NC(=O)[C@@H](N)CCCNC(=N)N)C(=O)NCCCCC(=O)O [RL monomer valeric acid, RQGYSPL-NHCH2CH2CH2CH2COOH] (H-RQGYSPL[Ava]-OH)
- IC50 [1]: 10 nM
- IC100 [1]: 0.1 µM
- IC50 (HIV-1 NL 4-3 [2]): 50 nM
- IC50 (HIV-1 NL 4-3 [3]; PBL, NL 4-3 strain, Table 4): 10 nM
- IC100 (HIV-1 NL 4-3 [3]; PBL, NL 4-3 strain, Table 4): 1 µM

Molecule: C[C@H](NC(=O)[C@H](CCCNC(=N)N)NC(=O)CNC(=O)[C@@H]1CCCN1C(=O)CN)C(=O)N[C@@H](Cc1ccccc1)C(=O)NCCCC[C@H](NC(=O)[C@H](Cc1ccccc1)NC(=O)[C@H](C)NC(=O)[C@H](CCCNC(=N)N)NC(=O)CNC(=O)[C@@H]1CCCN1C(=O)CN)C(=O)NCCCCC(=O)O [SPC3 dimer valeric acid, (GPGRAF)2-K—NHCH2CH2CH2CH2COOH] (I: H-GPGRAFK[Ava]-OH / II: H-GPGRAF; amide I:7-II:C; N-terminus assumed)
- IC50 [1]: 8 nM
- IC100 [1]: 0.5 µM
- IC50 (HIV-1 NL 4-3 [2]): 50 nM

Molecule: SPC3-Penetratin [S2]
- Day 4 syncitia formed (HIV-1 NL 4-3 [4]; 0.5 μM): −
- Day 5 syncitia formed (HIV-1 NL 4-3 [4]; 0.5 μM): −
- Day 6 syncitia formed (HIV-1 NL 4-3 [4]; 0.5 μM): −
- Day 7 syncitia formed (HIV-1 NL 4-3 [4]; 0.5 μM): +
- Day 4 syncitia formed (HIV-1 NL 4-3 [4]; 1 μM): −
- Day 5 syncitia formed (HIV-1 NL 4-3 [4]; 1 μM): −
- Day 6 syncitia formed (HIV-1 NL 4-3 [4]; 1 μM): −
- Day 7 syncitia formed (HIV-1 NL 4-3 [4]; 1 μM): −
- Day 4 syncitia formed (HIV-1 NL 4-3 [4]; 2 μM): −
- Day 5 syncitia formed (HIV-1 NL 4-3 [4]; 2 μM): −
- Day 6 syncitia formed (HIV-1 NL 4-3 [4]; 2 μM): −
- Day 7 syncitia formed (HIV-1 NL 4-3 [4]; 2 μM): −
- P 24 (HIV-1 NL 4-3 [2]; Day 4, 0.5 μM, Table 1): NEG
- P 24 (HIV-1 NL 4-3 [2]; Day 4, 0.5 μM, Table 2): 2 pg/mL
- P 24 (HIV-1 NL 4-3 [2]; Day 4, 1 μM, Table 1): NEG
- P 24 (HIV-1 NL 4-3 [2]; Day 4, 1 μM, Table 2): NEG
- P 24 (HIV-1 NL 4-3 [2]; Day 4, 2 μM, Table 1): NEG
- P 24 (HIV-1 NL 4-3 [2]; Day 4, 5 μM, Table 1): NEG
- P 24 (HIV-1 NL 4-3 [2]; Day 7, 0.5 μM, Table 2): 115 pg/mL and 91 pg/mL
- P 24 (HIV-1 NL 4-3 [2]; Day 7, 1 μM, Table 1): 181 pg/mL and 245 pg/mL
- Day 4 syncitia formed (HIV-1 NL 4-3 [5]; 0.05 μM): (+)
- Day 5 syncitia formed (HIV-1 NL 4-3 [5]; 0.05 μM): + and ++
- Day 6 syncitia formed (HIV-1 NL 4-3 [5]; 0.05 μM): ++
- Day 7 syncitia formed (HIV-1 NL 4-3 [5]; 0.05 μM): ++
- Day 4 syncitia formed (HIV-1 NL 4-3 [5]; 0.1 μM): (+)
- Day 5 syncitia formed (HIV-1 NL 4-3 [5]; 0.1 μM): +
- Day 6 syncitia formed (HIV-1 NL 4-3 [5]; 0.1 μM): +
- Day 7 syncitia formed (HIV-1 NL 4-3 [5]; 0.1 μM): ++
- Day 4 syncitia formed (HIV-1 NL 4-3 [5]; 0.5 μM): −
- Day 5 syncitia formed (HIV-1 NL 4-3 [5]; 0.5 μM): −
- Day 6 syncitia formed (HIV-1 NL 4-3 [5]; 0.5 μM): −
- Day 7 syncitia formed (HIV-1 NL 4-3 [5]; 0.5 μM): (+) and +
- Day 4 syncitia formed (HIV-1 NL 4-3 [5]; 1 μM): −
- Day 5 syncitia formed (HIV-1 NL 4-3 [5]; 1 μM): −
- Day 6 syncitia formed (HIV-1 NL 4-3 [5]; 1 μM): −
- Day 7 syncitia formed (HIV-1 NL 4-3 [5]; 1 μM): −
- IC100 (HIV-1 NL 4-3 [3]; on PBL): 0.01 µM

Molecule: SPC3-Tat [S3]
- Day 4 syncitia formed (HIV-1 NL 4-3 [4]; 0.5 μM): −
- Day 5 syncitia formed (HIV-1 NL 4-3 [4]; 0.5 μM): −
- Day 6 syncitia formed (HIV-1 NL 4-3 [4]; 0.5 μM): −
- Day 7 syncitia formed (HIV-1 NL 4-3 [4]; 0.5 μM): + and (+)
- Day 4 syncitia formed (HIV-1 NL 4-3 [4]; 1 μM): −
- Day 5 syncitia formed (HIV-1 NL 4-3 [4]; 1 μM): −
- Day 6 syncitia formed (HIV-1 NL 4-3 [4]; 1 μM): −
- Day 7 syncitia formed (HIV-1 NL 4-3 [4]; 1 μM): − and +
- Day 4 syncitia formed (HIV-1 NL 4-3 [4]; 2 μM): −
- Day 5 syncitia formed (HIV-1 NL 4-3 [4]; 2 μM): −
- Day 6 syncitia formed (HIV-1 NL 4-3 [4]; 2 μM): −
- Day 7 syncitia formed (HIV-1 NL 4-3 [4]; 2 μM): −
- Day 4 syncitia formed (HIV-1 NL 4-3 [4]; 5 μM): −
- Day 5 syncitia formed (HIV-1 NL 4-3 [4]; 5 μM): −
- Day 6 syncitia formed (HIV-1 NL 4-3 [4]; 5 μM): −
- Day 7 syncitia formed (HIV-1 NL 4-3 [4]; 5 μM): −
- P 24 (HIV-1 NL 4-3 [2]; Day 4, 0.1 μM, Table 2): 61 pg/mL and 33 pg/mL
- P 24 (HIV-1 NL 4-3 [2]; Day 4, 2 μM, Table 1): NEG
- P 24 (HIV-1 NL 4-3 [2]; Day 4, 5 μM, Table 1): NEG
- P 24 (HIV-1 NL 4-3 [2]; Day 7, 0.05 μM, Table 2): 3664 pg/mL and 2064 pg/mL
- P 24 (HIV-1 NL 4-3 [2]; Day 7, 0.1 μM, Table 2): 787 pg/mL and 496 pg/mL
- Day 4 syncitia formed (HIV-1 NL 4-3 [5]; 0.05 μM): (+)
- Day 5 syncitia formed (HIV-1 NL 4-3 [5]; 0.05 μM): +
- Day 6 syncitia formed (HIV-1 NL 4-3 [5]; 0.05 μM): ++
- Day 7 syncitia formed (HIV-1 NL 4-3 [5]; 0.05 μM): ++
- Day 4 syncitia formed (HIV-1 NL 4-3 [5]; 0.1 μM): (+)
- Day 5 syncitia formed (HIV-1 NL 4-3 [5]; 0.1 μM): − and +
- Day 6 syncitia formed (HIV-1 NL 4-3 [5]; 0.1 μM): +
- Day 7 syncitia formed (HIV-1 NL 4-3 [5]; 0.1 μM): ++
- Day 4 syncitia formed (HIV-1 NL 4-3 [5]; 0.5 μM): −
- Day 5 syncitia formed (HIV-1 NL 4-3 [5]; 0.5 μM): −
- Day 6 syncitia formed (HIV-1 NL 4-3 [5]; 0.5 μM): −
- Day 7 syncitia formed (HIV-1 NL 4-3 [5]; 0.5 μM): (+) and +
- Day 4 syncitia formed (HIV-1 NL 4-3 [5]; 1 μM): −
- Day 5 syncitia formed (HIV-1 NL 4-3 [5]; 1 μM): −
- Day 6 syncitia formed (HIV-1 NL 4-3 [5]; 1 μM): −
- Day 7 syncitia formed (HIV-1 NL 4-3 [5]; 1 μM): −
- IC100 (HIV-1 NL 4-3 [3]; on PBL): 0.1 µM
